Assay results taken from ChEMBL document CHEMBL1142880, “Synthesis and anti-HIV activity evaluation of 1-[(alkenyl or alkynyl or alkyloxy)methyl]-5-alkyl-6-(1-naphthoyl)-2,4-pyrimidinediones as novel non-nucleoside HIV-1 reverse transcriptase inhibitors” (Eur J Med Chem, 2007).

What was measured:
[1] = tested on: Human immunodeficiency virus 1; test: Antiviral activity against HIV1 3B in MT4 cells after 4 days by MTT method; format: functional, organism-based; conditions: Human immunodeficiency virus 1, 3B, MT4, 96 h
[2] = Selectivity index, ratio of CC50 for MT4 cells to IC50 for HIV1 3B; format: functional
[3] = Cytotoxicity against MT4 cells after 4 days by MTT method; format: cell-based; conditions: human
[4] = tested on: Human immunodeficiency virus 2; test: Antiviral activity against HIV2 ROD in MT4 cells after 4 days by MTT method; format: functional, organism-based; conditions: Human immunodeficiency virus 2, ROD, MT4, 96 h

With `C=CCOCn1c(C(=O)c2cccc3ccccc23)c(C)c(=O)[nH]c1=O` the IC50 [1] was 2.11 µM, the “Ratio CC50/IC50” value [2] was 62 and the CC50 at 96 h [3] was 131 µM. The IC50 [4] was greater than 131 µM.

With `CCOCn1c(C(=O)c2cccc3ccccc23)c(C)c(=O)[nH]c1=O` the IC50 [1] was 4.02 µM, the “Ratio CC50/IC50” value [2] was 13 and the CC50 at 96 h [3] was 51.7 µM. For the same compound, the IC50 [4] was greater than 51.7 µM.

With `O=c1[nH]cnc2c1ncn2[C@H]1CC[C@@H](CO)O1` [DIDANOSINE] the “Ratio CC50/IC50” value [2] was “>=98” and the CC50 at 96 h [3] was no less than 529 µM.

In the case of `Cc1c(C(=O)c2cccc3ccccc23)n(COCc2ccccc2)c(=O)[nH]c1=O`, the IC50 [1] is reported as 1.6 µM, the “Ratio CC50/IC50” value [2] is reported as 29 and the CC50 at 96 h [3] is reported as 45.6 µM. The IC50 [4] was greater than 45.6 µM.

With `CC(C)c1c(C(=O)c2cccc3ccccc23)n(COCc2ccccc2)c(=O)[nH]c1=O` the IC50 [1] was 0.11 µM, the “Ratio CC50/IC50” value [2] was 233 and the CC50 at 96 h [3] was 26.9 µM. It also gave an IC50 [4] greater than 26.9 µM.

In the case of `Cc1c(C(=O)c2cccc3ccccc23)n(CC#Cc2ccccc2)c(=O)[nH]c1=O`, the IC50 [1] is reported as 2.79 µM, the “Ratio CC50/IC50” value [2] is reported as 11 and the CC50 at 96 h [3] is reported as 29.9 µM. The IC50 [4] was greater than 29.9 µM.

In the case of `CCc1c(C(=O)c2cccc3ccccc23)n(COCc2ccccc2)c(=O)[nH]c1=O`, the IC50 [1] is reported as 0.15 µM, the “Ratio CC50/IC50” value [2] is reported as 257 and the CC50 at 96 h [3] is reported as 38.6 µM. It also gave an IC50 [4] greater than 38.6 µM.

For `C=CCOCn1c(C(=O)c2cccc3ccccc23)c(CC)c(=O)[nH]c1=O`, the IC50 [1] was 0.19 µM, the “Ratio CC50/IC50” value [2] was 243 and the CC50 at 96 h [3] was 45.6 µM. For the same compound, the IC50 [4] was greater than 45.6 µM.

In the case of `CCc1c(C(=O)c2cccc3ccccc23)n(CC2CC=CC2)c(=O)[nH]c1=O`, the IC50 [1] is reported as 0.22 µM, the “Ratio CC50/IC50” value [2] is reported as 84 and the CC50 at 96 h [3] is reported as 18.6 µM. For the same compound, the IC50 [4] was greater than 18.6 µM.

In the case of `Cc1c(C(=O)c2cccc3ccccc23)n(COCC2CC2)c(=O)[nH]c1=O`, the IC50 [1] is reported as 7.69 µM, the “Ratio CC50/IC50” value [2] is reported as 10 and the CC50 at 96 h [3] is reported as 77.6 µM. It also gave an IC50 [4] greater than 77.6 µM.

With `CCc1c(C(=O)c2cccc3ccccc23)n(COCC=C(C)C)c(=O)[nH]c1=O` the IC50 [1] was 6.89 µM, the “Ratio CC50/IC50” value [2] was 5 and the CC50 at 96 h [3] was 36.4 µM. It also gave an IC50 [4] greater than 36.4 µM.

For `Cc1c(Sc2ccccc2)n(COCCO)c(=O)[nH]c1=O` [HEPT], the “Ratio CC50/IC50” value [2] was 80, the CC50 at 96 h [3] was 405 µM and the IC50 [4] was greater than 406 µM.

For `CC(=O)OC/C=C(\C)Cn1c(C(=O)c2cccc3ccccc23)c(C)c(=O)[nH]c1=O`, the IC50 [1] was 41.4 µM, the “Ratio CC50/IC50” value [2] was 5 and the CC50 at 96 h [3] was 200 µM. The IC50 [4] was greater than 200 µM.

With `CC(C)=CCn1c(C(=O)c2cccc3ccccc23)c(C(C)C)c(=O)[nH]c1=O` the IC50 [1] was 2.42 µM, the “Ratio CC50/IC50” value [2] was 13 and the CC50 at 96 h [3] was 30.8 µM. It also gave an IC50 [4] greater than 30.8 µM.

With `CCc1c(C(=O)c2cccc3ccccc23)n(COCc2ccc([N+](=O)[O-])cc2)c(=O)[nH]c1=O` the IC50 [1] was 0.54 µM, the “Ratio CC50/IC50” value [2] was 55 and the CC50 at 96 h [3] was 30.5 µM. For the same compound, the IC50 [4] was greater than 30.5 µM.

For `CCc1c(C(=O)c2cccc3ccccc23)n(COCC2CC2)c(=O)[nH]c1=O`, the IC50 [1] was 0.93 µM, the “Ratio CC50/IC50” value [2] was 48 and the CC50 at 96 h [3] was 45.3 µM. For the same compound, the IC50 [4] was greater than 45.3 µM.

In the case of `CCc1c(C(=O)c2cccc3ccccc23)n(CC#Cc2ccccc2)c(=O)[nH]c1=O`, the IC50 [1] is reported as 0.21 µM, the “Ratio CC50/IC50” value [2] is reported as 83 and the CC50 at 96 h [3] is reported as 17 µM. It also gave an IC50 [4] greater than 17 µM.

In the case of `CCc1c(C(=O)c2cccc3ccccc23)n(C/C=C/C(=O)OC)c(=O)[nH]c1=O`, the IC50 [1] is reported as 0.71 µM, the “Ratio CC50/IC50” value [2] is reported as 54 and the CC50 at 96 h [3] is reported as 38.6 µM. The IC50 [4] was greater than 38.6 µM.

With `CCOCn1c(C(=O)c2cccc3ccccc23)c(CC)c(=O)[nH]c1=O` the IC50 [1] was 0.28 µM, the “Ratio CC50/IC50” value [2] was 78 and the CC50 at 96 h [3] was 23 µM. It also gave an IC50 [4] greater than 23 µM.

With `CC(C)=CCn1c(C(=O)c2cccc3ccccc23)c(C)c(=O)[nH]c1=O` the IC50 [1] was greater than 44.6 µM, the “Ratio CC50/IC50” value [2] was less than 1 and the CC50 at 96 h [3] was 44.6 µM. It also gave an IC50 [4] greater than 131 µM.
